Experimental data from ChEMBL document CHEMBL1123500, “Synthesis and antitumor activity of tropolone derivatives. 3” (1986).

Experiments:
[1] = In vitro inhibition of KB cell growth.; assay type: functional, Homo sapiens
[2] = tested on: P388; assay: Antitumor activity against P388, was determined by injecting intraperitoneally in mice, at a dose of 20 mg/kg; assay type: functional, Mus musculus; conditions: route intraperitoneal
[3] = tested on: P388; assay: Antitumor activity in P388 inoculated mice following 10 mg/kg i.p. administration.; assay type: functional, Mus musculus; conditions: route intraperitoneal
[4] = tested on: P388; assay: Antitumor activity in P388 inoculated mice following 5 mg/kg i.p. administration.; assay type: functional, Mus musculus; conditions: route intraperitoneal
[5] = tested on: P388; assay: Antitumor activity against P388, was determined by injecting intraperitoneally in mice, at a dose of 100 mg/kg; assay type: functional, Mus musculus; conditions: route intraperitoneal
[6] = tested on: P388; assay: Antitumor activity against P388, was determined by injecting intraperitoneally in mice, at a dose of 400 mg/kg; assay type: functional, Mus musculus; conditions: route intraperitoneal
[7] = tested on: P388; assay: Antitumor activity against P388, was determined by injecting intraperitoneally in mice, at a dose of 200 mg/kg; assay type: functional, Mus musculus; conditions: route intraperitoneal
[8] = tested on: P388; assay: Antitumor activity against P388, was determined by injecting intraperitoneally in mice, at a dose of 2.5 mg/kg; assay type: functional, Mus musculus; conditions: route intraperitoneal
[9] = tested on: P388; assay: Antitumor activity against P388, was determined by injecting intraperitoneally in mice, at a dose of 1.3 mg/kg; assay type: functional, Mus musculus; conditions: route intraperitoneal
[10] = tested on: P388; assay: Antitumor activity against P388, was determined by injecting intraperitoneally in mice, at a dose of 10 mg/kg; assay type: functional, Mus musculus; conditions: route intraperitoneal
[11] = tested on: P388; assay: Antitumor activity against P388, was determined by injecting intraperitoneally in mice, at a dose of 50 mg/kg; assay type: functional, Mus musculus; conditions: route intraperitoneal
[12] = tested on: P388; assay: Antitumor activity against P388, was determined by injecting intraperitoneally in mice, at a dose of 5 mg/kg; conditions: route intraperitoneal

Row | Structure (SMILES) | Activity [1] [µg/mL] | T/C [2] [%] | T/C [3] [%] | T/C [4] [%] | also measured
1 | CC(C)c1ccc(C(c2ccc(C(C)C)cc(=O)c2O)c2cccc3ccccc23)c(O)c(=O)c1 | 2.6 | 178 | 178 | 180 | –
2 | COc1ccc(C(c2ccc(C(C)C)cc(=O)c2O)C(c2ccc(OC)cc2)c2ccc(C(C)C)cc(=O)c2O)cc1 (stereo unspecified) | 5.2 | – | – | – | T/C [5]: 138%; T/C [6]: 139%; T/C [7]: 140%
3 | CC(C)c1ccc(C(c2ccc(C(=O)O)cc2)c2ccc(C(C)C)cc(=O)c2O)c(O)c(=O)c1 | 0.5 | 0 | 139 | – | T/C [8]: 154%; T/C [9]: 124%
4 | CC(C)c1ccc(C(c2ccc(C(c3ccc(C(C)C)cc(=O)c3O)c3ccc(C(C)C)cc(=O)c3O)cc2)c2ccc(C(C)C)cc(=O)c2O)c(O)c(=O)c1 | 100 | 100 | 105 | 107 | –
5 | CCOC(=O)COc1ccc(C(c2ccc(C(C)C)cc(=O)c2O)c2ccc(C(C)C)cc(=O)c2O)cc1 | – | 0 | – | 125 | T/C [10]: 0%
6 | CC(C)c1ccc(C(c2ccc(OCc3ccccc3)cc2)C(c2ccc(OCc3ccccc3)cc2)c2ccc(C(C)C)cc(=O)c2O)c(O)c(=O)c1 (stereo unspecified) | <100 | – | – | – | –
7 | CC(C)c1ccc(C(c2ccc3c(c2)OCO3)c2ccc(C(C)C)cc(=O)c2O)c(O)c(=O)c1 | 0.5 | 186 | 193 | 182 | –
8 | CC(C)c1ccc(C(c2ccc([N+](C)(C)C)cc2)c2ccc(C(C)C)cc(=O)c2O)c(O)c(=O)c1.[I-] | 2.5 | 91 | 95 | 102 | –
9 | COC(=O)c1ccc(C(c2ccc(C(C)C)cc(=O)c2O)c2ccc(C(C)C)cc(=O)c2O)cc1 | 0.5 | 0 | 128 | 145 | –
10 | CC(C)c1ccc(C(c2ccco2)c2ccc(C(C)C)cc(=O)c2O)c(O)c(=O)c1 | – | – | 0 | 177 | T/C [8]: 142%; T/C [9]: 132%
11 | CC(C)c1ccc(C(c2ccc(-c3ccccc3)cc2)c2ccc(C(C)C)cc(=O)c2O)c(O)c(=O)c1 | 2.5 | 127 | 138 | 111 | –
12 | COc1cc(C(c2ccc(C(C)C)cc(=O)c2O)c2ccc(C(C)C)cc(=O)c2O)cc(OC)c1OC | <0.3 | 162 | 151 | 142 | –
13 | CC(C)c1ccc(C(c2ccc(OCC(=O)[O-])cc2)c2ccc(C(C)C)cc(=O)c2O)c(O)c(=O)c1.[Na+] | 2.6 | – | 0 | 109 | –
14 | CC(C)c1ccc(C(c2ccc(N)cc2)c2ccc(C(C)C)cc(=O)c2O)c(O)c(=O)c1 | – | 147 | 147 | 138 | –
15 | CC(=O)Nc1ccc(C(c2ccc(C(C)C)cc(=O)c2O)c2ccc(C(C)C)cc(=O)c2O)cc1 | <0.3 | 0 | 128 | 171 | –
16 | CC(C)c1ccc(C(c2ccc(OCc3ccccc3)cc2)c2ccc(C(C)C)cc(=O)c2O)c(O)c(=O)c1 | 4.65 | 101 | – | – | T/C [5]: 152%; T/C [11]: 148%
17 | CC(C)c1ccc(C(c2ccc(O)cc2)c2ccc(C(C)C)cc(=O)c2O)c(O)c(=O)c1 | <0.3 | – | 0 | 195 | T/C [9]: 139%
18 | CC(C)c1ccc(C(c2cccs2)c2ccc(C(C)C)cc(=O)c2O)c(O)c(=O)c1 | 0.6 | – | 57 | 178 | T/C [12]: 178%
19 | CC(C)c1ccc(C(c2cccc3ccccc23)C(c2ccc(C(C)C)cc(=O)c2O)c2cccc3ccccc23)c(O)c(=O)c1 (stereo unspecified) | <100 | – | – | – | T/C [5]: 98%; T/C [6]: 95%; T/C [7]: 96%
20 | COc1ccc(C(c2ccc(C(C)C)cc(=O)c2O)c2ccc(C(C)C)cc(=O)c2O)cc1 | <0.3 | – | 170 | 173 | T/C [8]: 134%; T/C [10]: 170%
21 | CC(C)c1ccc(C(c2ccccc2)c2ccc(C(C)C)cc(=O)c2O)c(O)c(=O)c1 | <0.3 | – | 0 | 188 | T/C [8]: 150%; T/C [9]: 132%
